Laboratory results taken from US11564392B2, “Methods of inactivation of viruses using n-methlyglucamide and its derivatives” (BAYER HEALTHCARE LLC, priority 2017, dated 2023).
Entries after “also recorded” stand apart in the source; their conditions may differ. Where two headings read alike, the source gives them in different places.

Columns and labels:
[1] = test system: X-MuLV; format: cell-based, xenotropic murine leukemia virus; conditions: for X-MuLV inactivation (FIG. 4): 0.5×, 1×, 2× of the CMC, room temperature; for X-MuLV inactivation (FIG. 4) / X-MuLV inactivation (FIG. 5): within 30 minutes; for X-MuLV inactivation (FIG. 5): 1× and 2× of the CMC
[2] = format: physicochemical
Protocol: Each detergent was obtained as powder from the manufacturer and was appropriately weighed and allowed to dissolve in Milli-Q water. […] The detergents were stored in a dark container in 2-8° C. Table 2 lists the manufacturers of the detergent powders and the in-house preparation which are also detailed in the methods section. […] This occurrence has been observed by others as well and may have to do with the increasing fatty chain length that enhances the hydrophobicity thus decreasing the likelihood of solubility, especially in water (Gaber et al., Burczyk, 2007).

[3] = 25° C.; cited from earlier work
[4] = test system: BVDV; format: cell-based, bovine viral diarrhea virus; conditions: for BVDV inactivation: Mega 10 0.2, 0.3, 0.4% (w/v), Mega 9 1.0% (w/v), 2.0° C.
[5] = test system: X-MuLV; test: X-MuLV inactivation in rFVIII by methylglucamides with or without Tw20, TnBP or NaCl, TCID50 assay; format: cell-based, xenotropic murine leukemia virus
Protocol: Methylglucamides were tested with other compounds to determine potential synergistic effects on viral inactivation. […] Then, the titers of each samples or controls were assayed using a TCID50 assay previously described. For each experiment (FIGS. 15, 16 and 17), the controls consisted of rFVIII spiked with X-MuLV with no detergent, and the yielded titers within the expected range of about 6.5 log10 TCID50/ml.

[6] = molecular target: T1, recombinant FVIII (rFVIII) (Homo sapiens, UniProt P00451); test: Chromogenic assay to assess human Factor VIII activity after detergent incubation; format: biochemical; conditions: 0.3% (w/v)
T1 construct: recombinant human factor VIII (rFVIII) (full length wildtype, Bayer in-house preparation); made in house
T1 sequence (P00451 20-2351): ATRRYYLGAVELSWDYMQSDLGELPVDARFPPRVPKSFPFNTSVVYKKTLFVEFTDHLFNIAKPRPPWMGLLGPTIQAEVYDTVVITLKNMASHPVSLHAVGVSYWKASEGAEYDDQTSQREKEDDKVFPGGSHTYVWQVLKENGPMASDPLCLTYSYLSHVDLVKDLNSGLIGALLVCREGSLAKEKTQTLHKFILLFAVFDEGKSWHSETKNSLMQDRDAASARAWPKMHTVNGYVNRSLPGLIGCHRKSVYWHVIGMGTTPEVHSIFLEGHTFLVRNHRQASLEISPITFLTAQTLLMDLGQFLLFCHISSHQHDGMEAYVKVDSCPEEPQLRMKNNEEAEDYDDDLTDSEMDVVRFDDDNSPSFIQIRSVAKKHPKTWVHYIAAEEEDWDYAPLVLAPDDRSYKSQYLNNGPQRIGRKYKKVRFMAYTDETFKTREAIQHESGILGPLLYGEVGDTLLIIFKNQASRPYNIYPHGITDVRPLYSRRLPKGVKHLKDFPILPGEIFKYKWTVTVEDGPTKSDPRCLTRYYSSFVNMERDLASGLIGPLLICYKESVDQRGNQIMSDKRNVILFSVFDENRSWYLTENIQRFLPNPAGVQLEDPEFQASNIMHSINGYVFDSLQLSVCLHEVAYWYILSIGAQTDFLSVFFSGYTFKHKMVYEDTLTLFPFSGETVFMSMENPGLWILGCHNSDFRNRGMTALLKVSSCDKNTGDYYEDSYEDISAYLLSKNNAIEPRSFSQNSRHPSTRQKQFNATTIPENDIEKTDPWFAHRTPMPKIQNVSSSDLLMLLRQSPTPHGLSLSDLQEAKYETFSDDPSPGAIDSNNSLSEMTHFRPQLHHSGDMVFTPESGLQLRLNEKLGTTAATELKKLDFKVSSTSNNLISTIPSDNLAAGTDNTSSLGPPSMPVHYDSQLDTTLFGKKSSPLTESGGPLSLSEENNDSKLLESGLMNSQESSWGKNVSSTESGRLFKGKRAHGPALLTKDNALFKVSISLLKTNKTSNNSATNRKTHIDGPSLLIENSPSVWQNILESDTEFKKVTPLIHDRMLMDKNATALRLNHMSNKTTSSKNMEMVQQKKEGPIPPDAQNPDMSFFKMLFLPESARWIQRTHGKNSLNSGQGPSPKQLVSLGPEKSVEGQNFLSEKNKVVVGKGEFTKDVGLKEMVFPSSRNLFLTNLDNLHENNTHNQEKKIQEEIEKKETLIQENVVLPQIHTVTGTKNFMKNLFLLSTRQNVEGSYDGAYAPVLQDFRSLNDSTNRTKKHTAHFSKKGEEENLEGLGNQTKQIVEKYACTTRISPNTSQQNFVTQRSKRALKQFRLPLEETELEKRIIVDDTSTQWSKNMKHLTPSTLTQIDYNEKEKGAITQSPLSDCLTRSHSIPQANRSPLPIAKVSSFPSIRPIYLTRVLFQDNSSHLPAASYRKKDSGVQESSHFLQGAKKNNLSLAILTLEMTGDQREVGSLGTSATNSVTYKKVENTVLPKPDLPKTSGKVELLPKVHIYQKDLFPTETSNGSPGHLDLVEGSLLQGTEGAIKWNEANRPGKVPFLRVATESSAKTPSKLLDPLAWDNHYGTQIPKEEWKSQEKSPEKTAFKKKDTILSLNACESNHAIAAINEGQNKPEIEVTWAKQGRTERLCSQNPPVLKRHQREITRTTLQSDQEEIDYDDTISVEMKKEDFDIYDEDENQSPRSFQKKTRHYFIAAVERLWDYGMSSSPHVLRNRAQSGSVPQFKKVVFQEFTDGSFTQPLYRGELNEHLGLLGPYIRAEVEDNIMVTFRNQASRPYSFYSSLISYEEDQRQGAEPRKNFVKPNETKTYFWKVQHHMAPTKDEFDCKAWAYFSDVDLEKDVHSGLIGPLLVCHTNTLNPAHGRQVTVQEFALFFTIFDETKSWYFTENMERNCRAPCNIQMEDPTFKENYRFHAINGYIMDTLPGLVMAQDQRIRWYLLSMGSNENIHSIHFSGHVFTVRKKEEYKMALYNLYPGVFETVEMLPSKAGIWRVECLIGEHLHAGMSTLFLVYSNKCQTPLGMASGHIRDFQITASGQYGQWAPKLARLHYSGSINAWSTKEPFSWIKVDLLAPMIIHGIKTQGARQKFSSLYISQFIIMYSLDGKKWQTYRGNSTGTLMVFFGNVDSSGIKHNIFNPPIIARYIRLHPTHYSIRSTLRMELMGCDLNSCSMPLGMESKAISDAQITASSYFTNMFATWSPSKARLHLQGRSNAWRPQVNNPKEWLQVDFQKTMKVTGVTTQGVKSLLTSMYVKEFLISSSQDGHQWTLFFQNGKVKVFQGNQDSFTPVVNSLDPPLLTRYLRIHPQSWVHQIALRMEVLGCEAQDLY
T1 sequence (P00451 1668-2351 limits assumed): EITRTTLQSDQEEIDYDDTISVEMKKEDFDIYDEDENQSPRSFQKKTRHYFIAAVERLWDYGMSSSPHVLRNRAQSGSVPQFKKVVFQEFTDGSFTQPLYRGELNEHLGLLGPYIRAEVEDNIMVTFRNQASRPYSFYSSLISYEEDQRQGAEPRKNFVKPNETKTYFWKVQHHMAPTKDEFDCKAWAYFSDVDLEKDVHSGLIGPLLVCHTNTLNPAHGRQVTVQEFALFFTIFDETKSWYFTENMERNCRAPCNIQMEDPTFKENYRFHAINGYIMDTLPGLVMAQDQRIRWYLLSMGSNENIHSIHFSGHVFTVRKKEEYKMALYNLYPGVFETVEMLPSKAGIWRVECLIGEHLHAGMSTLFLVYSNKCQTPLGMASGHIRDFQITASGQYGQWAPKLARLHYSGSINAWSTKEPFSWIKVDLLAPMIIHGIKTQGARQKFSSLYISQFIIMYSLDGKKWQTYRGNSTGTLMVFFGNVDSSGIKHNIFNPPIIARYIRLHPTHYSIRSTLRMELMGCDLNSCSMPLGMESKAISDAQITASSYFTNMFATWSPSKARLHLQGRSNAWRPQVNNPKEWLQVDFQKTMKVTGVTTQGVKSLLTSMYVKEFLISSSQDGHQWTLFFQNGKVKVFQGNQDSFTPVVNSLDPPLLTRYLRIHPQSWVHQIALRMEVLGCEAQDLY
Protocol: A diluent control of rFVIII matrix spiked only with Milli-Q H2O was also prepared and incubated under the same conditions. Following the incubation, detergents and diluent control were diluted in 1× assay buffer along with chromogenic assay (Chromogenix COATEST SP4 FVIII Kit, Cat: 82409463) FVIII standard and controls to the appropriate levels. Thirty μL of each detergent, control, and standard were loaded onto a 96-well plate in triplicate. Chromogenic assay reagents were added according to the manufacturer's protocol and incubated at 37.0° C. and 5.0% CO2 for 8 minutes. Assay plate was measured for absorbance t 405 and 492 nm on a Molecular Devices SpectraMax M5 microplate reader. Data was analyzed using SoftMax Pro v5.
The principle of the assay involves a specific step in the blood clotting mechanism, in which Factor X is converted to Factor Xa leading to the hydrolysis of the chromogenic substrate. This reaction is dependent on the activity of Factor VIII (FVIII) and directly correlates to measurable color intensity.

[7] = test system: PRV; format: cell-based, porcine pseudorabies virus
[8] = test system: X-MuLV; format: cell-based, xenotropic murine leukemia virus
[9] = rFVIII, 2° C., 30 min, Mega 8 1.81%, Mega 9 0.84%, Mega 10 0.20%, Mega 12 0.014% (w/v)
[10] = rFVIII, Room Temperature, 30 min, Mega 8 1.81%, Mega 9 0.45%, Mega 10 0.10%, Mega 12 0.014% (w/v)
[11] = 0.20% (w/v) Mega 10 or 0.71% (w/v) Mega 9, with or without NaCl
[12] = 0.3% (w/v), 2.0° C., 30 minutes

Compound	X-MuLV inactivation (FIG. 4) [1]	X-MuLV inactivation ([1]; 0.5×CMC, 2° C., 30 minutes)	X-MuLV inactivation ([1]; 0.5×CMC, 25° C., 30 minutes)	X-MuLV inactivation (FIG. 5) ([1]; 2.0° C.)	Infection observed [1, 9]	Log Reduction Factor (LRF) [1, 9]	Infection observed [1, 10]	Log Reduction Factor (LRF) [1, 10]	solubilization of 5% (w/v) detergent in water [2]	CMC [3]	BVDV inactivation ([4]; 30 minutes)	X-MuLV inactivation [5, 11]	X-MuLV inactivation [1, 12]	further results
CCCCCCCC(=O)N(C)C[C@H](O)[C@@H](O)[C@H](O)[C@H](O)CO [Mega 8, octanoyl-N-methylglucamide]	completely inactivated	No significant inactivation	No significant inactivation	completely inactivated	No	≥4.37	No	≥4.32	readily solubilized in water at room temperature	58 mM				
CCCCCCCCC(=O)N(C)C[C@H](O)[C@@H](O)[C@H](O)[C@H](O)CO [Mega 9, nonaoyl-N-methylglucamide]	completely inactivated	partially	completely	completely inactivated	No	≥4.37	No	≥4.32	readily solubilized in water at room temperature	19 to 25 mM	completely inactivated	significantly inactivated		time to inactivate BVDV to the LOD ([4]; 1.0% (w/v)): ≤ 30 min; BVDV titer (detection limit) ([4]; 1.0% (w/v), 2.0±1.0° C., 30 minutes): ≤ 2.03 Log10 TCID50/mL
CCCCCCCCCC(=O)N(C)C[C@H](O)[C@@H](O)[C@H](O)[C@H](O)CO [Mega 10, decanoyl-N-methylglucamide]	completely inactivated	partially	completely	completely inactivated	No	≥4.37	No	≥4.32	solubilize within 15 minutes	6 to 7 mM	completely inactivated	significantly inactivated	complete X-MuLV inactivation; also recorded: inactivated X-MuLV completely	Infection Observed [1]: No; Infection observed [1]: No; LRF [1]: ≥ 24.45; X-MuLV inactivation kinetics [1]: immediate decrease (complete inactivation); also recorded: immediately inactivated; X-MuLV titer after treatment (limit of detection) [1]: ≤ 2.03 TCID50/mL; lowest concentration to quickly and completely inactivate X-MuLV [1]: approximately 0.23%; time to reach limit of detection (LOD) [1]: ≤ 5 min; virus titer [1]: about 2.62 Log10 TCID50/mL; virus titer (complete inactivation) [1]: ≤ 2.03 Log10 TCID50/mL; speed of BVDV inactivation ([4]; 0.2%): immediately after mixing; X-MuLV inactivation ([5]; 0.30% (w/v) M10 alone, +0.06% (w/v) Tw20, or +0.30% (w/v) TnBP, within 30 min): completely inactivated; effect on rFVIII activity ([6]; 2.0° C., 2 hour incubation): maintains its activity; also recorded: no effect on the activity of the protein drug; average activity of rFVIII ([6]; 2.0±1.0° C., 2 hours): 52.26 IU/mL; PRV titer (limit of detection) ([7]; 0.2 and 0.3%, 2.0±1.0° C., 15 minutes): ≤ 2.03 Log10 TCID50/mL; time to inactivate PRV to the limit of detection ([7]; 0.2 or 0.3 (w/v), 2.0° C.): ≤ 15 min; X-MuLV titer (limit of detection) [8]: ≤ 2.03 Log10 TCID50/mL; X-MuLV inactivation ([8]; 0.2, 0.3, 0.4% (w/v) in human IgG and human plasma protein solutions, 2.0° C., 30 minutes): completely inactivated
CCCCCCCCCCCC(=O)N(C)CC(O)C(O)C(O)C(O)CO (stereo not shown) [Mega 12, dodecanoyl-N-methylglucamide]	completely inactivated	No significant inactivation	No significant inactivation	completely inactivated	No	≥4.37	No	≥4.32	not able to dissolve water in a 37 °C water bath	0.35 mM				solubilization of 0.15% stock in water [2]: able to come into solution when placed in a 60 °C water bath within 15 minutes
P-tert-Octylphenoxy) polyethoxyethanol [Triton X-100, reference compound]													complete X-MuLV inactivation; also recorded: inactivated X-MuLV completely	X-MuLV titer after treatment (limit of detection) [1, 12]: ≤ 2.54 TCID50/mL
